Reference: US20240368092A1, “2,4-Dihydro-3H-1,2,4-Triazol-3-One P2X7 Antagonists” (Breye Therapeutics ApS, priority 2021, published 2024)

Experiments:
Format in all cases: cell-based
ratP2X7 = biological target: T1, ratP2X7 (Rattus norvegicus, UniProt Q64663); assay: P2X7 channel calcium-influx assay (Fluo-8, FLIPR TETRA), rat P2X7; conditions: HEK-293 cells stably transfected with P2X7; Bz-ATP at EC80; low divalent cation buffer; read-out: ratP2X7 (activity range)
T1 construct: expressed in transfected cells; host or cells: HEK-293
T1 sequence (Q64663 1-595): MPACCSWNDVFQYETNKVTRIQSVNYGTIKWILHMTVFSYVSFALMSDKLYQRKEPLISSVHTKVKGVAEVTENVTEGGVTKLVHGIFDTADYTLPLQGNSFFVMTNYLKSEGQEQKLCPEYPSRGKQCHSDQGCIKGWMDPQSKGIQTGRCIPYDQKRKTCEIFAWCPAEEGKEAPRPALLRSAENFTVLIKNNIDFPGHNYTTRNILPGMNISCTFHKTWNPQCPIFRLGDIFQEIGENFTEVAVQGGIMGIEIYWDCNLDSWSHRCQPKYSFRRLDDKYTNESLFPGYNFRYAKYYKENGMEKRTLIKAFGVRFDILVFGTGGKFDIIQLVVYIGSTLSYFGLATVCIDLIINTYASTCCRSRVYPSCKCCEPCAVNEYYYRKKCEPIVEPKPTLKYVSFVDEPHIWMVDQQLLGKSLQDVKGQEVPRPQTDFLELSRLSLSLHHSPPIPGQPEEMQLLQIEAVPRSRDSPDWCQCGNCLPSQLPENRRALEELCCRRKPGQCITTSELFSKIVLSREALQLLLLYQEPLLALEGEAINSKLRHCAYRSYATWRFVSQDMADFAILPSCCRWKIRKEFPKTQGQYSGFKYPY
Method: (§1) Extracellular binding of Bz-ATP to P2X7 receptor opens the channel and allows Ca^2+ influx into the cells. This Ca^2+ entry was measured in HEK-293 cells stably transfected with P2X7 receptor using Screen Quest™ Fluo-8 No Wash Calcium Assay Kit (AAt Bioquest®, cat. 36316). Once inside the cell, the lipophilic blocking groups of Fluo-8 are cleaved by non-specific cell esterases, resulting in a negatively-charged fluorescent dye that stays inside cells. Its fluorescence increases upon binding to calcium. When HEK-293/P2X7 cells are stimulated with Bz-ATP, Ca^2+ enters the cells and the fluorescence of Fluo-8 NW increases. The dye has an absorption spectrum compatible with excitation at 488 nm by argon laser sources and its emission wavelength is in the range of 515-575 nm.
(§2) HEK-293 cells stably transfected with P2X7 receptor were seeded overnight in growth medium at 10,000 to 20,000 cells/well in 384-well plate. 24 hours later, the medium was removed, and the cells were pre-loaded at RT for 1 hour with 20 μL/w of Fluo-8 NW. Then 10 μL/w of test compounds and reference antagonist A438079 at 3×-concentration were injected with the FLIPRTETRA and the kinetic response over a period of five minutes was monitored. A second injection of 15 μL/w of 3× reference activator (Bz-ATP at EC80) was performed with the FLIPR TETRA and the signal of the emitted fluorescence was recorded for additional three minutes. All the experiment was carried out in a Low Divalent Cation Assay Buffer (0.3 mM Ca^2+ and 0 mM Mg^2+). The effect of the test compounds was measured as percent inhibition vs the reference antagonist and IC50 values were calculated accordingly. Here are reported the potency ranges as A, B, C and D, where A is <200 nM; B is 200 nM-1 μM, C is 1-10 μM, D is 10-30 μM.

humanP2X7 = biological target: T2, humanP2X7 (Homo sapiens, UniProt Q99572); assay: P2X7 channel calcium-influx assay (Fluo-8, FLIPR TETRA), human P2X7; conditions: HEK-293 cells stably transfected with P2X7; Bz-ATP at EC80; low divalent cation buffer; read-out: humanP2X7 (activity range)
T2 construct: expressed in transfected cells; host or cells: HEK-293
T2 sequence (Q99572 1-595): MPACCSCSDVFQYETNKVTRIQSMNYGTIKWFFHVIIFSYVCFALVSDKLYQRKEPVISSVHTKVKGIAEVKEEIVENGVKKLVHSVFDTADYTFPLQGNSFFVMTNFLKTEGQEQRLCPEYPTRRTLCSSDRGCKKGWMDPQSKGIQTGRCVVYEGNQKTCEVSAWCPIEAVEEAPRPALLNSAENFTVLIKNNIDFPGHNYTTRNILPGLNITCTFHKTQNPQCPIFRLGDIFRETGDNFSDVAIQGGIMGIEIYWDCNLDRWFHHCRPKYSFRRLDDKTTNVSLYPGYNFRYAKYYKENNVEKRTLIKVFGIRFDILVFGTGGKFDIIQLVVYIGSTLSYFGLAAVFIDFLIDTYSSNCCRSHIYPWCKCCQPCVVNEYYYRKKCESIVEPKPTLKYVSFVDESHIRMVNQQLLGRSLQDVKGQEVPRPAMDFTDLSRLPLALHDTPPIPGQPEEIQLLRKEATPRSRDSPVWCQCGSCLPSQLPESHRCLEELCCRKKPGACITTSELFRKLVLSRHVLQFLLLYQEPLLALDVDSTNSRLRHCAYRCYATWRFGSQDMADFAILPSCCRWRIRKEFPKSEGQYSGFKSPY
Method: as §1, §2

mouseP2X7 = biological target: T3, mouseP2X7 (Mus musculus, UniProt Q9Z1M0); assay: P2X7 channel calcium-influx assay (Fluo-8, FLIPR TETRA), mouse P2X7; conditions: HEK-293 cells stably transfected with P2X7; Bz-ATP at EC80; low divalent cation buffer; read-out: mouseP2X7 (activity range)
T3 construct: expressed in transfected cells; host or cells: HEK-293
T3 sequence (Q9Z1M0 1-595): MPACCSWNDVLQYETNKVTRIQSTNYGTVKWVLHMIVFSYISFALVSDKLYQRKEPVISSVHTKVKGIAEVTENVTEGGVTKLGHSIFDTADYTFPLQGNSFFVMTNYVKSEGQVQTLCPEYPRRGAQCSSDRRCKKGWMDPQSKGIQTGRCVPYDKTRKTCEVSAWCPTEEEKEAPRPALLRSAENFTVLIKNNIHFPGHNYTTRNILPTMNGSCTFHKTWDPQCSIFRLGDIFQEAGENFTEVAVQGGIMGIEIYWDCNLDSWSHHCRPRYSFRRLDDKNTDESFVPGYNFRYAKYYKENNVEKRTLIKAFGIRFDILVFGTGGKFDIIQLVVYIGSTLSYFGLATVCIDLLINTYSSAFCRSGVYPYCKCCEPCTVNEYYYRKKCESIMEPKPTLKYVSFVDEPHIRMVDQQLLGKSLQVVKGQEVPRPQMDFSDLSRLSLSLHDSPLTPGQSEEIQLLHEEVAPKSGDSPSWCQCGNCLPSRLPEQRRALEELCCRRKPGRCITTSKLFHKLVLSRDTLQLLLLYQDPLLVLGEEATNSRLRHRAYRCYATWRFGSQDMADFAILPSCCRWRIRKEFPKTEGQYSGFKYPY
Method: as §1, §2

human P2X7 channel = biological target: T4, human P2X7 channel (Homo sapiens, UniProt Q99572); assay: human P2X7 channel assay by automated patch-clamp (QPatch 16X); conditions: HEK-293 cells expressing P2X7; current evoked by 100 microM BzATP; whole-cell, held at -80 mV; read-out: human Q-Patch (activity range)
T4 construct: expressed in transfected cells; host or cells: HEK-293
T4 sequence (Q99572 1-595): T2 sequence (Q99572 1-595)
Method: In order to directly monitor the block of P2X7 channel, an electrophysiological assay was developed and implemented on the QPatchl6X automated electrophysiology instrument.
HEK-293 cells expressing the P2X7 channels were cultured in modified EMEM.
72 hours before experiment, 5 million cells were seeded onto T225 flasks. Just before the experiment cells were washed twice, detached from the flask with trypsin-EDTA, re-suspended in the suspension solution and placed on the QPatch 16x.
The compounds (20 mM in a 100% DMSO) stored at −20° C. were prepared the day of the experiment (a first dilution 1:20 in 100% DMSO to prepare a 1 mM stock solution, then a 1 microM solution in external solution+a serial dilution 1:10).
The standard whole-cell voltage clamp experiments were performed at room temperature. From these experiments the multihole technology was used and the data were sampled at 2 KHz.
The intracellular solution contained (mM) 135 CsF, 10 NaCl, 1 EGTA, 10 HEPES, (pH 7.2 with CsOH) whereas the extracellular contained (mM) 145 NaCl, 4 KCl, 0.5 MgCl2, 1 CaCl2, 10 HEPES, 10 Glc (pH 7.4 with NaOH).
After establishment of the seal and the passage in the whole cell configuration, the cells were held at −80 mV. The P2XR7 current was evoked by applying 100 microM of BzATP alone (4 times) and then in the presence increasing concentrations of the compound under investigation (1, 10, 100 and 1000 nM).
The pre-incubation periods 5 to 8 contain increasing concentrations of the compound of interest (1, 10, 100 and 1000 nM), as illustrated in FIGURE (application protocol).
The maximal inward current evoked by BzATP in absence or presence of increasing concentrations of the compounds under investigation was measured and normalized. The potential […] effect was measured as % of control and as IC50 determined fitting the dose-response curves data with the following equation:
Here are reported the potency ranges as A, B, C and D, where A is <10 nM; B is 10 nM-100 nM, C is 0.1-1 μM, D is 1-10 μM.

IC50 (ratP2X7) | IC50 (humanP2X7) | IC50 (mouseP2X7) | IC50 (human P2X7 channel) | Structure (SMILES)
200 to 1000 nM | 1000 to 10000 nM | 1000 to 10000 nM |  | Cn1nc(Cc2c(F)cccc2Cl)n(Cc2ccc(F)cc2)c1=O [Example 1, 5-(2-chloro-6-fluorobenzyl)-4-(4-fluorobenzyl)-2-methyl-2,4-dihydro-3H-1,2,4-triazol-3-one]
< 200 nM | 200 to 1000 nM | 200 to 1000 nM | < 10 nM | Cn1nc(Cc2c(F)cccc2Cl)n(CC2CCCCC2)c1=O [Example 2, 5-(2-chloro-6-fluorobenzyl)-4-(cyclohexylmethyl)-2-methyl-2,4-dihydro-3H-1,2,4-triazol-3-one]
< 200 nM | < 200 nM | 200 to 1000 nM | 10 to 100 nM | Cn1nc(Cc2c(F)cccc2Cl)n(CC2CCC(F)(F)CC2)c1=O [Example 3, 5-(2-chloro-6-fluorobenzyl)-4-((4,4-difluorocyclohexyl)methyl)-2-methyl-2,4-dihydro-3H-1,2,4-triazol-3-one]
200 to 1000 nM | 200 to 1000 nM | 1000 to 10000 nM |  | Cn1nc(Cc2c(F)cccc2Cl)n(CC2CCC(F)(F)C2)c1=O (centres unmarked) [Example 4, 5-(2-chloro-6-fluorobenzyl)-4-((3,3-difluorocyclopentyl)methyl)-2-methyl-2,4-dihydro-3H-1,2,4-triazol-3-one]
< 200 nM | 200 to 1000 nM | 200 to 1000 nM |  | Cn1nc(Cc2c(F)cccc2Cl)n(CC2CCC(F)CC2)c1=O (centres unmarked) [Example 6, 5-(2-chloro-6-fluorobenzyl)-4-((4-fluorocyclohexyl)methyl)-2-methyl-2,4-dihydro-3H-1,2,4-triazol-3-one]
< 200 nM | < 200 nM | 200 to 1000 nM |  | Cn1nc(Cc2c(F)cccc2Cl)n(CC2CCC(C(F)(F)F)CC2)c1=O (centres unmarked) [Example 7, 5-(2-chloro-6-fluorobenzyl)-2-methyl-4-((4-(trifluoromethyl)cyclohexyl)methyl)-2,4-dihydro-3H-1,2,4-triazol-3-one]
1000 to 10000 nM | 1000 to 10000 nM | 1000 to 10000 nM |  | Cn1nc(Cc2ccc(F)cc2Cl)n(Cc2ccc(F)cc2)c1=O [Example 8, 5-(2-chloro-4-fluorobenzyl)-4-(4-fluorobenzyl)-2-methyl-2,4-dihydro-3H-1,2,4-triazol-3-one]
< 200 nM | 200 to 1000 nM | 200 to 1000 nM |  | Cn1nc(Cc2ccc(F)cc2Cl)n(CC2CCCCC2)c1=O [Example 9, 5-(2-chloro-4-fluorobenzyl)-4-(cyclohexylmethyl)-2-methyl-2,4-dihydro-3H-1,2,4-triazol-3-one]
200 to 1000 nM | 10000 to 30000 nM | 1000 to 10000 nM |  | Cn1nc(Cc2ccc(F)cc2Cl)n(CC2CCC(F)(F)C2)c1=O (centres unmarked) [Example 10, 5-(2-chloro-4-fluorobenzyl)-4-((3,3-difluorocyclopentyl)methyl)-2-methyl-2,4-dihydro-3H-1,2,4-triazol-3-one]
< 200 nM | 200 to 1000 nM | 200 to 1000 nM |  | O=c1n(CC(F)(F)F)nc(Cc2ccccc2Cl)n1CC1CCCCCC1 [Example 54, 5-[(2-chlorophenyl)methyl]-4-(cycloheptylmethyl)-2-(2,2,2-trifluoroethyl)-2,4-dihydro-3H-1,2,4-triazol-3-one]
< 200 nM | 200 to 1000 nM | 200 to 1000 nM |  | Cn1nc(CC2CCCCCC2)n(Cc2c(F)cccc2Cl)c1=O [Example 59, 4-[(2-chloro-6-fluorophenyl)methyl]-5-(cycloheptylmethyl)-2-methyl-2,4-dihydro-3H-1,2,4-triazol-3-one]
< 200 nM | < 200 nM | 200 to 1000 nM |  | CCn1nc(Cc2ccccc2Cl)n(CC2CCCCCC2)c1=O [Example 64, 5-[(2-chlorophenyl)methyl]-4-(cycloheptylmethyl)-2-ethyl-2,4-dihydro-3H-1,2,4-triazol-3-one]
200 to 1000 nM | 200 to 1000 nM | 1000 to 10000 nM |  | Cn1nc(CC2CCC(F)(F)CC2)n(Cc2c(F)cccc2Cl)c1=O [Example 71, 4-[(2-chloro-6-fluorophenyl)methyl]-5-[(4,4-difluorocyclohexyl)methyl]-2-methyl-2,4-dihydro-3H-1,2,4-triazol-3-one]
